Measurements as given in ChEMBL document CHEMBL5209562, “Label-free detection of transporter activity via GPCR signalling in living cells: A case for SLC29A1, the equilibrative nucleoside transporter 1” (Sci Rep, 2019).
pIC50: −log10 of the molar value.

Biological target: T1, Equilibrative nucleoside transporter 1 (Homo sapiens, UniProt Q99808)
T1 sequence (Q99808 whole entry): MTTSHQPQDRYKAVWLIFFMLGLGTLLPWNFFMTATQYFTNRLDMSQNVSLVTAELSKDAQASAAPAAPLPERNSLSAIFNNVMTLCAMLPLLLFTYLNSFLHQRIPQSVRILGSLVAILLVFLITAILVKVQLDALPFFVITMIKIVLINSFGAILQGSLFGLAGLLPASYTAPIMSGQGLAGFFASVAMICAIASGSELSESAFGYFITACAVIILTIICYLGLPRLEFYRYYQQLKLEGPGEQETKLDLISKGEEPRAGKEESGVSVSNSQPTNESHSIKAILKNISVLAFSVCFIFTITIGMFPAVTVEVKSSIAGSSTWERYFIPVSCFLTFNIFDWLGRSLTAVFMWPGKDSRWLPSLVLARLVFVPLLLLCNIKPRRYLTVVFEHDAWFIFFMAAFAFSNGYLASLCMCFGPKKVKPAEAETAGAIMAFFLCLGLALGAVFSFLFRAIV
Assay: Inhibition of the equilibrative nucleoside transporter (ENT1, SLC29A1) as assessed by GPCR-mediated changes in cell morphology using the impedance-based transporter activity through receptor activation (TRACT) assay (PubChem AID: 1745861)
Type: functional, U2OS

NC(=O)C1CN(CCCCC(c2ccc(F)cc2)c2ccc(F)cc2)CCN1CC(=O)Nc1c(Cl)cc(N)cc1Cl (stereo unspecified) [DRAFLAZINE] was tested, and the pIC50 was 8.28.
